# What was measured:
# mouse skin = assay: Transdermal diazepam in CFEP-Complex formulation delivered to mouse skin; format: in vivo; conditions: single application to mouse skin in 4-9% CFEP-Complex formulation; preliminary, 'may provide'
# Procedure: A formulation for transdermal delivery is a novel format for diazepam or lorazepam or clonazepam, and utilizes the lipophilic properties of each molecule. In one example diazepam is administered in 3 doses, namely 10 mg/gram, 25 mg/gram and 50 mg/gram using a 4-9% CFEP-Complex carrier formulation consisting of cetyl decanoate, cetyl laurate, cetyl myristate, cetyl myristoleate, cetyl oleate, cetyl palmitate, cetyl palmitoleate and cetyl stearate. The polar solvent used is propylene glycol (12%) in the described cream base at a pH of 6.5. A pH range of 6-7 is effective and tocopherol acetate is the antioxidant at 1%. […] The permeant is first finely emulsified in the CFEP-Complex and polar solvent prior to addition of the cream base. A single application of diazepam delivered to mouse skin in this formulation may provide pronounced activity for 5-8 hours. […] Pregabalin in a topical format is also an excellent anti-convulsant and useful in the treatment of seizure already described in examples 4 and 5 above.
# [1] = free base; cited from earlier work
# [2] = Permeation in the CFEP formulations; conditions: in any of the three formulations of Example 3
# patients = conditions: oral formulations; cited from earlier work
# [3] = oral; cited from earlier work
# arthritic patients = assay: Topical cetylated fatty ester complexes with rubefacients versus placebo base, joint functionality and pain; format: in vivo, human; conditions: eucalyptus oil 1% to 5%, camphor 1-7% in the carrier formulation
# Source text: The composition of the invention provides for the administration of permeants with anti-arthritic properties. A topical application consisting of the cetylated fatty ester complexes in concentrations of 5% to 20% with rubefacients (such as methyl salicylate, menthol and for some variations capsaicin can be applied to affected areas of arthritic patients). The permeants were at concentrations ranging from 1-30%. The carrier formulation consisted of a penetrant group of 8 cetyl fatty esters (4-9%; cetyl decanoate, cetyl laurate, cetyl myristate, cetyl myristoleate, cetyl oleate, cetyl palmitate, cetyl palmitoleate and cetyl stearate) with propylene glycol as the polar solvent (12%), in the described cream base at a pH of 6.5. One variation of carrier formulation is also an anti-inflammatory and is used topically to treat joint pain and musculoskeletal pain and other types of pains in arthritis (Kraemer W J et al. 2004 J Rheumatology 31:767-74; Kraemer W J et al. 2005 J Strength and Conditioning Res 19: 475-80 and Sharan et al. 2009, submitted for publication), The preferred polar solvent is propylene glycol. […]
# [4] = intravenous injection, 5 mg; cited from earlier work
# [5] = oral; cited from earlier work; remark: listed apart in the source
smiles,measurement,setting,value
CN1C(=O)CN=C(c2ccccc2)c2cc(Cl)ccc21 [diazepam],duration of pronounced activity,mouse skin,5 to 8 h
"CNC1(c2ccccc2Cl)CCCCC1=O (centres unmarked) [Ketamine, 2-(2-chlorophenyl)-2-(methylamino)-cyclohexanone]",lipid solubility,[1],10 times that of thiopentone
O=C(O)CCCCC1CCSS1 (stereo not drawn) [Alpha lipoic acid],permeation,[2],permeates well
CC(C)C[C@H](CN)CC(=O)O [Pregabalin],"adverse reactions such as drowsiness and dizziness, share of the patients",patients,more than 10%
same,bioavailability,[3],more than 90%
CC12CCC(CC1=O)C2(C)C (centres unmarked) [camphor],other rubefacients found to be effective,arthritic patients,effective
CCN(CC)CC#CCOC(=O)C(O)(c1ccccc1)C1CCCCC1 (centres unmarked) [oxybutynin],Tmax,[4],15 min
C/C1=C2/[N-][C@H]([C@H](CC(N)=O)[C@@]2(C)CCC(=O)NC[C@@H](C)OP(=O)([O-])O[C@H]2[C@@H](O)[C@@H](n3cnc4cc(C)c(C)cc43)O[C@@H]2CO)[C@]2(C)N=C(/C(C)=C3N=C(/C=C4N=C1[C@@H](CCC(N)=O)C\4(C)C)[C@@H](CCC(N)=O)[C@]\3(C)CC(N)=O)[C@@H](CCC(N)=O)[C@]2(C)CC(N)=O.[CH3-].[Co+3] [methylcobalamin],rate of absorption by passive diffusion,[5],1-2 % of the ingested material

# Reference: patent publication US8394759B2, “Transdermal delivery of medicaments with combinations of cetylated fatty ester penetrant complexes” (Cymbiotics, Inc., priority 2008, dated 2013)
